Data published in patent EP3436024B1, “3-BETA-METHOXY-PREG FOR USE IN THE TREATMENT OF TREATMENT RESISTANT DEPRESSION” (Mapreg, priority 2016, dated 2017).

Assays:
Histaminergic H2 = Histaminergic H2 (Homo sapiens, UniProt P25021); assay: CNS receptor binding assay, H2; settings: MAP4343 10 µM; [^125I] APT; Human recombinant (CHO cells); read-out: % Inhibition of control specific binding
Method: (§1) MAP4343 has been screened for in vitro affinity to 80 different CNS neurotransmitters receptors using various validated binding assays.
(§2) Table 4. In vitro affinity of MAP4343 (10 µM) for CNS neurotransmitter receptors associated with side effects and/or abuse liability. Data are the average of two individual assays for each receptor and are expressed as % inhibition of the control specific binding of the reference compound. Results showing an inhibition higher than 50% are considered to represent significant effects of the test compound.

[1] = target: T1, Muscarinic (Cholinergic) M1 (Homo sapiens, UniProt P11229); assay: CNS receptor binding assay, M1; settings: MAP4343 10 µM; [^3H] pirenzepine; Human recombinant (CHO cells); read-out: % Inhibition of control specific binding
T1 construct: expressed in transfected cells; host or cells: CHO cells
Method: as §1, §2

NMDA PCP site = assay: CNS receptor binding assay, NMDA PCP site; settings: MAP4343 10 µM; [^3H] TCP; rat cerebral cortex
Method: as §1, §2

Histaminergic H1 = Histaminergic H1 (Homo sapiens, UniProt P35367); assay: CNS receptor binding assay, H1; settings: MAP4343 10 µM; [^3H] pyrilamine; Human recombinant (HEK-293 cells); read-out: % Inhibition of control specific binding
Method: as §1, §2

Histaminergic H2, sequence (P25021 whole entry): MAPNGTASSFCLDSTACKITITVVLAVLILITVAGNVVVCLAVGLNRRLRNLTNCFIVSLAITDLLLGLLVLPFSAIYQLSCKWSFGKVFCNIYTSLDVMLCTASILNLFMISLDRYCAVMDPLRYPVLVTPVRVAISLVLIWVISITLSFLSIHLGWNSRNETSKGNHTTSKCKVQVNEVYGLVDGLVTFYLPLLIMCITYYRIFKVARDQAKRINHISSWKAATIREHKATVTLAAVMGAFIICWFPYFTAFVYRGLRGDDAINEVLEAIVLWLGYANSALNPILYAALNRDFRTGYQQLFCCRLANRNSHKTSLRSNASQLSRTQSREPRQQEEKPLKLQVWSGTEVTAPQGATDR
T1 sequence (P11229 whole entry): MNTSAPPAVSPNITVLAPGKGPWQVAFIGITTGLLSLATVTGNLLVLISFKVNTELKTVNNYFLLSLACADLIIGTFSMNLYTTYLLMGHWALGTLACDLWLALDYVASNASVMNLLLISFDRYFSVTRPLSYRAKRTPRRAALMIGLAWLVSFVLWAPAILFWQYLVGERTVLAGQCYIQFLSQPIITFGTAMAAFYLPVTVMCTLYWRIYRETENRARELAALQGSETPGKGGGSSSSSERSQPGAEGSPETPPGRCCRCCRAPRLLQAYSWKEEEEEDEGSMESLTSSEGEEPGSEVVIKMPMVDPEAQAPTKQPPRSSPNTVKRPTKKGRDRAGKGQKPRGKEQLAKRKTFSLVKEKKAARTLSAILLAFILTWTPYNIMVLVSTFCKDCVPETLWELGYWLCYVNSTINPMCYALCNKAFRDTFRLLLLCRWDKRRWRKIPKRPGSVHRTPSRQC
Histaminergic H1, sequence (P35367 whole entry): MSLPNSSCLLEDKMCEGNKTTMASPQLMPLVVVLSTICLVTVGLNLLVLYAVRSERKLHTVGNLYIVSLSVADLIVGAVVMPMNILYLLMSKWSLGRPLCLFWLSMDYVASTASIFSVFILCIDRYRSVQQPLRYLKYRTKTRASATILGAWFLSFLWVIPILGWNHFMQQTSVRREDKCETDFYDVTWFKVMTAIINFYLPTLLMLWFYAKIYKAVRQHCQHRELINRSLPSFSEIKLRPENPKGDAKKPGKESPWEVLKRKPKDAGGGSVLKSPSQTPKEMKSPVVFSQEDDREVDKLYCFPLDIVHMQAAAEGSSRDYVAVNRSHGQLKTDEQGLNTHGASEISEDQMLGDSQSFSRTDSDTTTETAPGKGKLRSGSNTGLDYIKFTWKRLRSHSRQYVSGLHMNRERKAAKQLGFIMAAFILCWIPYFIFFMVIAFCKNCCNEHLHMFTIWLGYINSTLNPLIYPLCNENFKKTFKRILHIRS

For `CO[C@H]1CC[C@@]2(C)C(=CC[C@H]3[C@@H]4CC[C@H](C(C)=O)[C@@]4(C)CC[C@@H]32)C1` (stereo in doubt) [MAP4343, 3β-methoxy-pregna-5-ene-20-one], the inhibition at 10 µM (Histaminergic H2) was -21%, the inhibition at 10 µM [1] was -3% and the “% Inhibition of control specific binding” value (NMDA PCP site) was -10%. For the same compound, the inhibition at 10 µM (Histaminergic H1) was 9%.
